Assay type in all cases: cell-based
For assay [1], the system named is HT-29 human colon adenocarcinoma cells. Briefly: MTT cell growth inhibition, HT-29. Particulars: for IC50: Homo sapiens, read-out: IC50 for cell growth inhibition; for Enhanced Potency: ratio of IC50 NSAID/POSH-NSAID, fold-enhancement over parent, HT-29.
In assay [2] the test system is HCT-15 human colon adenocarcinoma cells. Briefly: MTT cell growth inhibition, HCT 15. Particulars: for IC50: Homo sapiens, read-out: IC50 for cell growth inhibition; for Enhanced Potency: ratio of IC50 NSAID/POSH-NSAID, fold-enhancement over parent, HCT 15.
The subject of assay [3] is SW-480 human colon adenocarcinoma cells. Briefly: MTT cell growth inhibition, SW480. Particulars: for IC50: Homo sapiens, read-out: IC50 for cell growth inhibition; for Enhanced Potency: ratio of IC50 NSAID/POSH-NSAID, fold-enhancement over parent, SW480.
Assay [4] deals with MIA PaCa-2 human pancreatic cancer cells. The experiment in a line: MTT cell growth inhibition, MIAPaCa2. The settings on record: for IC50: Homo sapiens, read-out: IC50 for cell growth inhibition; for Enhanced Potency: ratio of IC50 NSAID/POSH-NSAID, fold-enhancement over parent, MIAPaCa2.
The test system of assay [5] is BxPC-3 human pancreatic cancer cells. Briefly: MTT cell growth inhibition, BxPC3. Particulars: for IC50: Homo sapiens, read-out: IC50 for cell growth inhibition; for Enhanced Potency: ratio of IC50 NSAID/POSH-NSAID, fold-enhancement over parent, BxPC3.
Assay [6] deals with A549 human lung cancer cells. Briefly: MTT cell growth inhibition, A549. The settings on record: for IC50: Homo sapiens, read-out: IC50 for cell growth inhibition; for Enhanced Potency: ratio of IC50 NSAID/POSH-NSAID, fold-enhancement over parent, A549.
For assay [7], the system named is LNCAP human prostate cancer cells. The experiment in a line: MTT cell growth inhibition, LNCAP. Particulars: 24 h; for IC50: Homo sapiens, read-out: IC50 for cell growth inhibition; for Enhanced Potency: ratio of IC50 NSAID/POSH-NSAID, fold-enhancement over parent, LNCAP.
Assay [8] has as its system Jurkats human leukemia cells. The experiment in a line: MTT cell growth inhibition, Jurkat. Particulars: 24 h; for IC50: Homo sapiens, read-out: IC50 for cell growth inhibition; for Enhanced Potency: ratio of IC50 NSAID/POSH-NSAID, fold-enhancement over parent.
The mark [9] stands for this setting: MIA PaCa-2, 24 h, Pancreas MIAPaCa2, mean ± SEM of three determinations.
Where [10] appears, read: BXPC-3, 24 h, Pancreas BxPC3, mean ± SEM of three determinations.
The mark [11] stands for this setting: 24 h, Lung A549, mean ± SEM of three determinations.
The mark [12] stands for this setting: Prostate LNCAP, mean ± SEM of three determinations.
The mark [13] stands for this setting: Leukemia Jurkat, mean ± SEM of three determinations.

Each structure is given as a SMILES string. Like-named read-outs stand apart in the source and are kept apart here.

As a reminder, the IC50 is the concentration that gives 50% inhibition.

With `CC(=O)Oc1ccccc1C(=O)O` [ASA, aspirin, reference compound], the IC50 was over 5000 µM in assay [1] (24 h, Colon HT-29, mean ± SEM of three determinations); over 5000 µM in assay [2] (24 h, Colon HCT 15, mean ± SEM of three determinations); over 5000 µM in assay [3] (24 h, Colon SW480, mean ± SEM of three determinations); over 5000 µM in assay [4] (setting [9]); over 5000 µM in assay [5] (setting [10]); over 5000 µM in assay [6] (setting [11]). For the same molecule, the IC50 in assay [7] (setting [12]) and in assay [8] (setting [13]) was over 5000 µM in each case.

For `COc1ccc2cc([C@H](C)C(=O)O)ccc2c1` [NAP, naproxen, reference compound], the IC50 in assay [4] (setting [9]) came out at 3200 µM; in assay [5] (setting [10]), 2600 µM; in assay [6] (setting [11]) it was 2650 µM; in assay [7] (setting [12]), 2990 µM; in assay [8] (setting [13]), 2380 µM.

On to `CCOP(=O)(OCC)OCCSSCCOC(=O)c1ccccc1OC(C)=O` [POSH-ASA], for which the IC50 was found to be 0.082 µM in assay [1] (HT-29, 24 h); 0.075 µM in assay [2] (HCT-15, 24 h); 0.092 µM in assay [3] (SW480, 24 h); 0.082 µM in assay [4] (MIA PaCa-2, 24 h); 0.075 µM in assay [5] (BXPC-3, 24 h); 0.083 µM in assay [6] (A549, 24 h). The results for the IC50 in assay [7] (LNCaP) and in assay [8] (Jurkat) were 0.075 µM and 0.22 µM, respectively. Besides, the “Enhanced Potency” value is recorded as >60,000 in assay [1] (24 h); >65,000 in assay [2] (24 h); >50,000 in assay [3] (24 h); >60,000 in assay [4] (24 h); >65,000 in assay [5] (24 h); >60,000 in assay [6] (24 h). In addition, the figures for the “Enhanced Potency” value in assay [7] and in assay [8] (Jurkat) were >65,000 and >20,000, respectively.

As for `CCOP(=O)(OCC)OCCSSCCOC(=O)C(C)c1ccc2cc(OC)ccc2c1` (stereo not drawn) [POSH-NAP], the IC50 in assay [1] (HT-29, 24 h) is 0.15 µM; in assay [2] (HCT-15, 24 h), 0.12 µM; in assay [3] (SW480, 24 h), 0.18 µM; in assay [4] (MIA PaCa-2, 24 h), 0.088 µM; in assay [5] (BXPC-3, 24 h) it was 0.1 µM; in assay [6] (A549, 24 h), 0.16 µM. The IC50 in assay [7] (LNCaP) was 0.13 µM; in assay [8] (Jurkat) it was 0.17 µM. Also, the “Enhanced Potency” value in assay [1] (24 h) is recorded as ~18,000; in assay [2] (24 h), ~24,000; in assay [3] (24 h), ~17,000; in assay [4] (24 h) it was ~36,000; in assay [5] (24 h), ~26,000; in assay [6] (24 h) it was ~16,000. Moreover, the figures for the “Enhanced Potency” value in assay [7] and in assay [8] (Jurkat) were ~25,000 and ~14,000, respectively.
